Assay: xn = mol fraction of the nth substance listed
Conditions: Vibrating tube method

O=S=O [sulfur dioxide] + O=C=O
Conditions	mass density [kg/m3]
298.1 K, 34441 kPa, Liquid, x2 = 0.9478	1013.3
298.1 K, 35077 kPa, Liquid, x2 = 0.9478	1015.5
298.1 K, 35971 kPa, Liquid, x2 = 0.9478	1018.4
298.1 K, 36493 kPa, Liquid, x2 = 0.9478	1020.2
298.1 K, 37078 kPa, Liquid, x2 = 0.9478	1022
298.11 K, 7503 kPa, Liquid, x2 = 0.9478	829.8
298.11 K, 8006 kPa, Liquid, x2 = 0.9478	838.7
298.11 K, 8501 kPa, Liquid, x2 = 0.9478	846.7
298.11 K, 10505 kPa, Liquid, x2 = 0.9478	872.1
298.11 K, 11004 kPa, Liquid, x2 = 0.9478	877.7
298.11 K, 13010 kPa, Liquid, x2 = 0.9478	897.8
298.11 K, 13500 kPa, Liquid, x2 = 0.9478	902.3
298.11 K, 15011 kPa, Liquid, x2 = 0.9478	915.2
298.11 K, 15500 kPa, Liquid, x2 = 0.9478	919.1
298.11 K, 16016 kPa, Liquid, x2 = 0.9478	923
298.11 K, 16534 kPa, Liquid, x2 = 0.9478	926.8
298.11 K, 17024 kPa, Liquid, x2 = 0.9478	930.2
298.11 K, 17492 kPa, Liquid, x2 = 0.9478	933.3
298.11 K, 17978 kPa, Liquid, x2 = 0.9478	936.5
298.11 K, 18527 kPa, Liquid, x2 = 0.9478	939.8
298.11 K, 19025 kPa, Liquid, x2 = 0.9478	942.9
298.11 K, 19477 kPa, Liquid, x2 = 0.9478	945.6
298.11 K, 20051 kPa, Liquid, x2 = 0.9478	948.9
298.11 K, 20492 kPa, Liquid, x2 = 0.9478	951.5
298.11 K, 21501 kPa, Liquid, x2 = 0.9478	957
298.11 K, 23041 kPa, Liquid, x2 = 0.9478	965.2
298.11 K, 28987 kPa, Liquid, x2 = 0.9478	993.1
298.11 K, 29543 kPa, Liquid, x2 = 0.9478	994.8
298.11 K, 30013 kPa, Liquid, x2 = 0.9478	996.8
298.11 K, 30505 kPa, Liquid, x2 = 0.9478	998.9
298.11 K, 30997 kPa, Liquid, x2 = 0.9478	1000.7
298.11 K, 31516 kPa, Liquid, x2 = 0.9478	1002.6
298.11 K, 33949 kPa, Liquid, x2 = 0.9478	1011.6
298.11 K, 35494 kPa, Liquid, x2 = 0.9478	1016.9
298.11 K, 37574 kPa, Liquid, x2 = 0.9478	1023.6
298.11 K, 37960 kPa, Liquid, x2 = 0.9478	1024.8
298.11 K, 38545 kPa, Liquid, x2 = 0.9478	1026.6
298.11 K, 38913 kPa, Liquid, x2 = 0.9478	1027.8
298.11 K, 39519 kPa, Liquid, x2 = 0.9478	1029.5
298.11 K, 40060 kPa, Liquid, x2 = 0.9478	1031.1
298.12 K, 9508 kPa, Liquid, x2 = 0.9478	860.5
298.12 K, 10039 kPa, Liquid, x2 = 0.9478	866.6
298.12 K, 11504 kPa, Liquid, x2 = 0.9478	882.9
298.12 K, 12000 kPa, Liquid, x2 = 0.9478	887.9
298.12 K, 12503 kPa, Liquid, x2 = 0.9478	892.9
298.12 K, 14006 kPa, Liquid, x2 = 0.9478	906.7
298.12 K, 14500 kPa, Liquid, x2 = 0.9478	910.9
298.12 K, 40411 kPa, Liquid, x2 = 0.9478	1032.1
322.39 K, 392 kPa, Gas, x2 = 0.9503	7
322.39 K, 1252 kPa, Gas, x2 = 0.9503	22.2
322.39 K, 1707 kPa, Gas, x2 = 0.9503	31.7
322.39 K, 2008 kPa, Gas, x2 = 0.9503	37
322.39 K, 3512 kPa, Gas, x2 = 0.9503	70.9
322.39 K, 4009 kPa, Gas, x2 = 0.9503	82.8
322.39 K, 4519 kPa, Gas, x2 = 0.9503	96.9
322.39 K, 5017 kPa, Gas, x2 = 0.9503	111.5
322.39 K, 5528 kPa, Gas, x2 = 0.9503	127.9
322.39 K, 6019 kPa, Gas, x2 = 0.9503	145.7
322.39 K, 7009 kPa, Fluid (supercritical or subcritical phases), x2 = 0.9503	189.5
322.39 K, 7504 kPa, Fluid (supercritical or subcritical phases), x2 = 0.9503	218.4
322.4 K, 749 kPa, Gas, x2 = 0.9503	13.6
322.4 K, 1002 kPa, Gas, x2 = 0.9503	17.9
322.4 K, 1509 kPa, Gas, x2 = 0.9503	27.5
322.4 K, 2511 kPa, Gas, x2 = 0.9503	48.1
322.4 K, 3008 kPa, Gas, x2 = 0.9503	58.8
322.41 K, 6514 kPa, Fluid (supercritical or subcritical phases), x2 = 0.9503	166.3
322.41 K, 8037 kPa, Fluid (supercritical or subcritical phases), x2 = 0.9503	254.6
322.41 K, 8521 kPa, Fluid (supercritical or subcritical phases), x2 = 0.9503	307.2
322.41 K, 9006 kPa, Fluid (supercritical or subcritical phases), x2 = 0.9503	371
322.45 K, 9501 kPa, Fluid (supercritical or subcritical phases), x2 = 0.9503	460.8
322.46 K, 9992 kPa, Fluid (supercritical or subcritical phases), x2 = 0.9503	538
322.46 K, 30511 kPa, Fluid (supercritical or subcritical phases), x2 = 0.9503	905.8
322.46 K, 34988 kPa, Fluid (supercritical or subcritical phases), x2 = 0.9503	930.2
322.46 K, 35500 kPa, Fluid (supercritical or subcritical phases), x2 = 0.9503	933
322.46 K, 36061 kPa, Fluid (supercritical or subcritical phases), x2 = 0.9503	935.4
322.46 K, 36509 kPa, Fluid (supercritical or subcritical phases), x2 = 0.9503	937.7
322.46 K, 37005 kPa, Fluid (supercritical or subcritical phases), x2 = 0.9503	940.1
322.46 K, 37561 kPa, Fluid (supercritical or subcritical phases), x2 = 0.9503	942.4
322.47 K, 10501 kPa, Fluid (supercritical or subcritical phases), x2 = 0.9503	585
322.47 K, 29929 kPa, Fluid (supercritical or subcritical phases), x2 = 0.9503	902.4
322.47 K, 31027 kPa, Fluid (supercritical or subcritical phases), x2 = 0.9503	908.9
322.47 K, 31517 kPa, Fluid (supercritical or subcritical phases), x2 = 0.9503	912
322.47 K, 32536 kPa, Fluid (supercritical or subcritical phases), x2 = 0.9503	917.5
322.47 K, 33070 kPa, Fluid (supercritical or subcritical phases), x2 = 0.9503	920.6
322.47 K, 33539 kPa, Fluid (supercritical or subcritical phases), x2 = 0.9503	923.2
322.47 K, 34062 kPa, Fluid (supercritical or subcritical phases), x2 = 0.9503	925.5
322.47 K, 34511 kPa, Fluid (supercritical or subcritical phases), x2 = 0.9503	928
322.47 K, 38091 kPa, Fluid (supercritical or subcritical phases), x2 = 0.9503	945
322.47 K, 38434 kPa, Fluid (supercritical or subcritical phases), x2 = 0.9503	946.6
322.47 K, 39200 kPa, Fluid (supercritical or subcritical phases), x2 = 0.9503	950
322.47 K, 40947 kPa, Fluid (supercritical or subcritical phases), x2 = 0.9503	956.3
322.48 K, 20496 kPa, Fluid (supercritical or subcritical phases), x2 = 0.9503	829.2
322.48 K, 23049 kPa, Fluid (supercritical or subcritical phases), x2 = 0.9503	853.3
322.48 K, 25500 kPa, Fluid (supercritical or subcritical phases), x2 = 0.9503	871.4
322.48 K, 27026 kPa, Fluid (supercritical or subcritical phases), x2 = 0.9503	882.9
322.48 K, 28501 kPa, Fluid (supercritical or subcritical phases), x2 = 0.9503	892.7
322.48 K, 32039 kPa, Fluid (supercritical or subcritical phases), x2 = 0.9503	914.6
322.48 K, 39641 kPa, Fluid (supercritical or subcritical phases), x2 = 0.9503	951.7
322.48 K, 40153 kPa, Fluid (supercritical or subcritical phases), x2 = 0.9503	953.9
322.48 K, 40902 kPa, Fluid (supercritical or subcritical phases), x2 = 0.9503	956.7
322.49 K, 11003 kPa, Fluid (supercritical or subcritical phases), x2 = 0.9503	621.1
322.49 K, 18008 kPa, Fluid (supercritical or subcritical phases), x2 = 0.9503	800.3
322.49 K, 19008 kPa, Fluid (supercritical or subcritical phases), x2 = 0.9503	812.8
322.49 K, 20012 kPa, Fluid (supercritical or subcritical phases), x2 = 0.9503	824.3
322.49 K, 21007 kPa, Fluid (supercritical or subcritical phases), x2 = 0.9503	834.7
322.49 K, 21533 kPa, Fluid (supercritical or subcritical phases), x2 = 0.9503	839.7
322.49 K, 22009 kPa, Fluid (supercritical or subcritical phases), x2 = 0.9503	843.9
322.49 K, 22496 kPa, Fluid (supercritical or subcritical phases), x2 = 0.9503	848.2
322.49 K, 23500 kPa, Fluid (supercritical or subcritical phases), x2 = 0.9503	856.5
322.49 K, 24003 kPa, Fluid (supercritical or subcritical phases), x2 = 0.9503	860.4

Reference: the NIST ThermoML archive (doi:10.1016/j.fluid.2017.09.014)
